Source: patent US5821232A, “Synergistic therapeutic compositions and methods” (Pfizer Inc., priority 1995, dated 1998)

Key:
Male Hartley guinea pigs = experiment: Mean arterial pressure lowering in conscious sodium-depleted guinea pigs, i.v. dosing; format: in vivo, guinea pig; set-up: unit not given beside the values; conditions: trapezoidal method
Protocol: Male Hartley guinea pigs weighing between 250 and 300 g were obtained from Charles River Laboratories, Lakeview, New Jersey. The guinea pigs were allowed to acclimate to their environment for at least two weeks. Then, they were placed on a low sodium diet (Purina Modified Guinea Pig Chow, no sodium added) for 14 days and were given injections of furosemide (Lasix® 2 mg/kg, i.m.) on three non-consecutive days. At least 24 hours prior to experimentation, the animals were anesthetized with xylazine (Rompune, 10 mg/kg, s.c.) and ketamine (Vetalar®, 80 mg/kg, i.m.) and, using aseptic technique, cannulae (PE-50) were implanted into the aorta via the right carotid artery for direct measurement of mean arterial pressure (MAP). Cannulae (PE-50) were also placed into the left jugular vein for intravenous compound administration. Both catheters were exteriorized at the intrascapular region of the animal's back and flushed with a heparinized dextrose solution. To prevent the formation of clots, each cannula was filled with heparin at a concentration of 1000 units/ml. After surgery, an antibacterial, trimethoprim/sulfamethoxazole (Di-Trim®, 30 mg/kg, s.c.), was given to the animals. The animals were allowed to recover with water and no-sodium chow administered ad libitum. On the day of the experiment, each guinea pig was given an additional injection of furosemide (6 mg/kg, i.m.) to accelerate sodium loss and was placed in a sound-proof, ventilated box with one-way glass for observation. Mean arterial pressure was monitored with a Statham 23DB strain gauge pressure transducer previously calibrated using a mercury manometer. The arterial pressure waveform and derived heart rate were continuously recorded on a Grass Model 7D oscillograph. Arterial pressure waveform samples were obtained approximately every 20 seconds using an IBM PS/2 model 30 computer equipped with a custom algorithm designed to calculate mean arterial pressure from the integrated waveform. Values were obtained for a period of at least one hour prior to and 2 hours (usually 4 hours) after dosing. The test compounds were infused intravenously followed by a 250 μl flush with heparinized dextrose solution.
Dose response curves for the renin inhibitor (RI) (0.3 to 3.0 mg/kg, i.v.) and captopril (0.03 to 1.0 mg/kg, i.v.) were obtained (n =4 to 8) in order to quantitate baseline responses to each drug. In experiments where the renin inhibitor and captopril were co-administered, the renin inhibitor was given first immediately followed by captopril. Doses of renin inhibitor and angiotensin converting enzyme inhibitor, when given together, were chosen on the basis of causing submaximal hypotensive effects. Therefore, the contributory effect of each drug could be quantitated by integration and compared to the expected effect to determine whether additive or synergistic responses had occurred.
Employing the procedure described above, the changes in mean arterial pressure (AMAP) for the renin inhibitor (RI), the ACE inhibitor (captopril) and the renin inhibitor (RI), plus the ACE inhibitor (captopril) were obtained for various doses and are shown in Table I, below. The AOC-MAP is the area over the dose response curve for each dose calculated using the trapezoidal method.
The data in Table I were obtained by averaging the A MAP of all animals for each dose prior to calculating the AOC-MAP. When the data contained in Table I was reviewed for the purpose of calculating the AOC-MAP by averaging the area over the dose response curve for each animal per dose, it was discovered that the AOC-MAP for 0.5 mg/kg RI plus 0.05 mg/kg captopril inadvertently reflected the data based on only three of the six subject test animals. Shown below in Table II are the AOC-MAP data for the experiments reported in Table I, which data is now the result of determining the area over the dose response curve for each animal per dose and averaging the AOC-MAP, as well as determining the standard deviation. […]

[1] = Oldham et al., J. Cardiovasc. Pharmacol. 6: 672-677 (1984); cited from earlier work
[2] = Table III, 0.3 mg/kg i.v., average of area per animal
[3] = Table III, 1.0 mg/kg i.v., average of area per animal
[4] = Table I, 0.3 mg/kg i.v., area over curve from MAP change averaged over all animals per dose
[5] = Table I, 1.0 mg/kg i.v., area over curve from MAP change averaged over all animals per dose
[6] = Table II, 0.3 mg/kg i.v., average of area per animal (± standard deviation)
[7] = Table II, 1.0 mg/kg i.v., average of area per animal (± standard deviation)

Compound	AOC-MAP (Male Hartley guinea pigs; [2])	AOC-MAP (Male Hartley guinea pigs; [3])	AOC-MAP (Male Hartley guinea pigs; Table III, 3.0 mg/kg i.v., average of area per animal)	AOC-MAP (Male Hartley guinea pigs; Table I, 0.03 mg/kg i.v., area over curve from MAP change averaged over all animals per dose)	AOC-MAP (Male Hartley guinea pigs; Table I, 0.10 mg/kg i.v., area over curve from MAP change averaged over all animals per dose)	AOC-MAP (Male Hartley guinea pigs; [4])	AOC-MAP (Male Hartley guinea pigs; [5])	AOC-MAP (Male Hartley guinea pigs; Table II, 0.03 mg/kg i.v., average of area per animal (± standard deviation))	AOC-MAP (Male Hartley guinea pigs; Table II, 0.10 mg/kg i.v., average of area per animal (± standard deviation))	AOC-MAP (Male Hartley guinea pigs; [6])	AOC-MAP (Male Hartley guinea pigs; [7])	AOC-MAP (Male Hartley guinea pigs; Table III, 0.03 mg/kg i.v., average of area per animal)	AOC-MAP (Male Hartley guinea pigs; Table III, 0.10 mg/kg i.v., average of area per animal)	hypotensive effect of captopril injection during H77 infusion [1]	AOC-MAP (Male Hartley guinea pigs; Table I, 3.0 mg/kg i.v., area over curve from MAP change averaged over all animals per dose)	AOC-MAP (Male Hartley guinea pigs; Table II, 3.0 mg/kg i.v., average of area per animal (± standard deviation))
CCCCc1nc(Cl)c(CO)n1Cc1ccc(-c2ccccc2-c2nn[nH]n2)cc1 [Dup 753]	-125 (±31)	-549 (±96)	-1575 (±281)													
C[C@H](CS)C(=O)N1CCC[C@H]1C(=O)O [captopril]	-826 (±128)	-3272 (±350)		-99	-289	-1263	-3272	-96 (±16)	-283 (±24)	-1036 (±145)	-3272 (±350)	-96 (±16)	-269 (±18)	small additional hypotensive effect		
[alpha-R[alpha-R*, beta-S*(S*,S*)]-alpha-hydroxy-beta-[[2-[[2 -(4-morpholin-1-carboxamido)-1-oxo-3 -phenylpropyllaminol-3 -methylthio-l-oxo-propyl]amino]-cyclohexanebutanoic acid, isopropyl ester [RI]						-256	-496			-310 (±47)	-568 (±158)				-1829	-1990 (±408)
